In patent publication US8501911B2, “Methods of reducing inflammation and mucus hypersecretion” (Biomarck Pharmaceuticals, Ltd, priority 1999, dated 2013):
“And” between values parts separate entries of the source, which are not always exact repeats. Equal entries are not always repeated. Residues, ends and D or L forms follow the SMILES beside them. *: point of attachment. Myristoyl = CCCCCCCCCCCCCC(=O)*

Tests used:
Type in all cases: cell-based
[1] = test system: LPS-primed human neutrophils; assay: MPO secretion from LPS-primed human neutrophils
Protocol: (§1) Results-I-11 and Results-I-12 show MPO secretion from LPS-primed human neutrophils as a model for humans, and Results-I-13, Results-I-14, and Results-I-15 show MPO secretion from LPS-primed canine neutrophils as a model for canines. In all of these experiments, isolated neutrophils were stimulated with LPS at a concentration of 1×10^−6 M for 10 minutes at 37° C. prior to adding the stimuli. The LPS primes the cells so they can respond to a secretagogue.
Thus, in one comparative experiment, when absorbance was monitored at 450 nm while observing MPO secretion from LPS-primed human neutrophils, Results-I-11 were obtained as follows.
In another comparative experiment, when absorbance was monitored at 450 nm while observing MPO secretion from LPS-primed human neutrophils, Results-I-12 were obtained as follows.
MPO Colorimetric Enzyme Assay—Samples were assayed for MPO activity in 96 well round bottom microtiter plates using a sandwich ELISA kit (R & D Systems, Minneapolis, Minn.). Briefly, 20 microliters of sample is mixed with 180 microliters of substrate mixture containing 33 mM potassium phosphate, pH 6.0, 0.56% Triton X-100, 0.11 mM hydrogen peroxide, and 0.36 mM O-Diannisidine Dihydrochloride in an individual microtiter well. […] After mixing, the assay mixture was incubated at room temperature for 5 minutes, and MPO enzyme activity determined spectrophotometrically at 550 nanometers. […]

[2] = test system: LPS-primed canine neutrophils; assay: MPO secretion from LPS-primed canine neutrophils
Protocol: as §1
In another comparative experiment, when absorbance was monitored at 450 nm while observing MPO secretion from LPS-primed canine neutrophils, Results-I-13 were obtained as follows.
In another comparative experiment, when absorbance was monitored at 450 nm while observing MPO secretion from LPS-primed canine neutrophils, Results-I-14 were obtained as follows.
In another comparative experiment, when absorbance was monitored at 450 nm while observing MPO secretion from LPS-primed canine neutrophils, Results-I-15 were obtained as follows.
Isolation of PMNs from canine blood—The steps involved in isolating PMN include collecting 10 ml ACD anticoagulated blood; then layering 5 ml on 3.5 ml PMN isolation media while ensuring that the PMN isolation media (IM) was at room temperature (RI). Next, the blood was centrifuged at room temperature for 30′, 550×g at 1700 RPMs. The low lower white band was transferred into a 15 ml conical centrifuge tube (CCFT). Next, 2V HESS with 10% fetal bovine serum […] was added and centrifuged at room temperature for 10′, 400×g at 1400 RPMs. The pellet was then resuspended in 5 ml 1-1ESS with PBS. The cell suspension was added to 50 ml CCFT containing 20 ml of ice cold 0.88% NH4 Cland inverted two to three times. […]
MPO Colorimetric Enzyme Assay—Samples were assayed for MPO activity in 96 well round bottom microtiter plates using a sandwich ELISA kit (R & D Systems, Minneapolis, Minn.). […] After mixing, the assay mixture was incubated at room temperature for 5 minutes, and MPO enzyme activity determined spectrophotometrically at […]. […]

human neutrophils = assay: MPO secretion from isolated human neutrophils stimulated with PMA+8-Br-cGMP
Protocol: (§2) MPO Colorimetric Enzyme Assay—Samples were assayed for MPO activity in 96 well round bottom microtiter plates using a sandwich ELISA kit (R & D Systems, Minneapolis, Minn.). Briefly, 20 microliters of sample is mixed with 180 microliters of substrate mixture containing 33 mM potassium phosphate, pH 6.0, […], 0.11 mM hydrogen peroxide, and 0.36 mM O-Diannisidine Dihydrochloride in an individual microtiter well. The final concentrations in the assay mixture are: 30 mM potassium phosphate, pH 6.0, 0.05% Triton X-100, 0.1 mM hydrogen peroxide, and 0.32 mM O-Diannisidine Dihydrochloride. […] Samples were assayed in duplicate.

canine neutrophils = assay: MPO secretion from isolated canine neutrophils stimulated with PMA+8-Br-cGMP
Protocol: Isolation of PMNs from canine blood—The steps involved in isolating PMN include collecting 10 ml ACD anticoagulated blood; then layering 5 ml on 3.5 ml PMN isolation media while ensuring that the PMN isolation media (IM) was at room temperature (RI). Next, the blood was centrifuged at room temperature for 30′, 550×g at 1700 RPMs. The low lower white band was transferred into a 15 ml conical centrifuge tube (CCFT). Next, 2V HESS with 10% fetal bovine serum […] was added and centrifuged at room temperature for 10′, 400×g at 1400 RPMs. The pellet was then resuspended in 5 ml 1-1ESS with PBS. The cell suspension was added to 50 ml CCFT containing 20 ml of ice cold 0.88% NH4 Cland inverted two to three times. The resulting product was centrifuged for 10′, 800×g at 2000 RPMs, then aspirated and resuspended in ml HBSS with FBS. The prep was examined by counting and cytospin and preferably for whole blood, the cell number should be between 10^9-10^11 cells and for PMNs, cell number should be between 2-4×10^7 cells. See generally, Wang et al., J. Immunol., “Neutrophil-induced changes in the biomechanical properties of endothelial cells: roles of ICAM-1 and reactive oxygen species,” 6487-94 (2000).
as §2

[3] = peptide 1 μM + 100 nM PMA+10 μM 8-Br-cGMP, unstimulated control 0.076
[4] = peptide 10 μM + 100 nM PMA+10 μM 8-Br-cGMP
[5] = peptide 100 μM + 100 nM PMA+10 μM 8-Br-cGMP
[6] = peptide 1 μM + 100 nM PMA+10 μM 8-Br-cGMP, unstimulated control 0.10

**Q.** What does the source list for `Nc1nc2c(nc(Br)n2[C@@H]2O[C@@H]3COP(=O)(O)O[C@H]3[C@H]2O)c(=O)[nH]1` [8-Br-cGMP]?
**A.** Absorbance reading at 450 nm (MPO secretion) ([1]; cGMP alone, concentration not given): 0.155; Absorbance reading at 450 nm (MPO secretion) ([2]; 8-Br-cGMP 1 micromolar alone): approximately 0.078; Absorbance reading at 450 nm (MPO secretion) ([2]; 8-Br-cGMP 10 micromolar alone): approximately 0.0835

**Q.** Which “Absorbance at 450 nm (MPO secretion)” value (human neutrophils; [3]) does the source give for `CCCCCCCCCCCCCC(=O)NCC(=O)N[C@@H](C)C(=O)N[C@@H](CCC(N)=O)C(=O)N[C@@H](Cc1ccccc1)C(=O)N[C@@H](CO)C(=O)N[C@@H](CCCCN)C(=O)N[C@H](C(=O)N[C@@H](C)C(=O)N[C@@H](C)C(=O)N[C@@H](CCCCN)C(=O)NCC(=O)N[C@@H](CCC(=O)O)C(=O)N[C@@H](C)C(=O)N[C@@H](C)C(=O)N[C@@H](C)C(=O)N[C@@H](CCC(=O)O)C(=O)N[C@@H](CCCNC(=N)N)C(=O)N1CCC[C@H]1C(=O)NCC(=O)N[C@@H](CCC(=O)O)C(=O)N[C@@H](C)C(=O)N[C@@H](C)C(=O)N[C@H](C(=O)N[C@@H](C)C(=O)O)C(C)C)[C@@H](C)O` [MANS peptide] (Myristoyl-GAQFSKTAAKGEAAAERPGEAAVA-OH; C-terminus assumed) here?
**A.** Its value is 0.102.

**Q.** And the “Absorbance at 450 nm (MPO secretion)” value (human neutrophils; [4])?
**A.** Its value is 0.093.

**Q.** And the “Absorbance at 450 nm (MPO secretion)” value (human neutrophils; [5])?
**A.** Its value is 0.068.

**Q.** And the “Absorbance at 450 nm (MPO secretion)” value (canine neutrophils; [6])?
**A.** The value was 0.25.

**Q.** What about the “Absorbance at 450 nm (MPO secretion)” value (canine neutrophils; [4]) of the same compound?
**A.** The value was 0.09.

**Q.** With `CCCCCCCCCCCCCC(=O)O[C@@H]1[C@@H](C)[C@@]2(O)[C@@H](C=C(CO)C[C@]3(O)C(=O)C(C)=C[C@@H]23)[C@@H]2C(C)(C)[C@]12OC(C)=O` [PMA, phorbol 12-myristate 13-acetate] as the compound, how does the “Absorbance reading at 450 nm (MPO secretion)” value ([1]; 10 nM PMA, medium control 0.15) read?
**A.** Its value is 0.19.

**Q.** What about the “Absorbance reading at 450 nm (MPO secretion)” value ([2]; 100 nM PMA alone) of the same compound?
**A.** The value was 0.078 and 0.0825.

**Q.** For `CCCCCCCCCCCCCC(=O)NCC(=O)N[C@H](C(=O)N[C@@H](C)C(=O)N1CCC[C@H]1C(=O)N[C@@H](C)C(=O)N[C@@H](C)C(=O)N[C@@H](CCC(=O)O)C(=O)NCC(=O)N[C@@H](C)C(=O)NCC(=O)N[C@@H](C)C(=O)N[C@@H](CCC(=O)O)C(=O)N[C@H](C(=O)N[C@@H](CCCCN)C(=O)N[C@@H](CCCNC(=N)N)C(=O)N[C@@H](C)C(=O)N[C@@H](CO)C(=O)N[C@@H](C)C(=O)N[C@@H](CCC(=O)O)C(=O)N[C@@H](C)C(=O)N[C@@H](CCCCN)C(=O)N[C@@H](CCC(N)=O)C(=O)N[C@@H](C)C(=O)N[C@@H](Cc1ccccc1)C(=O)O)C(C)C)[C@@H](C)O` [RNS peptide, reference compound] (Myristoyl-GTAPAAEGAGAEVKRASAEAKQAF-OH; C-terminus assumed), which “Absorbance at 450 nm (MPO secretion)” value (human neutrophils; [3]) is on record?
**A.** The value was 0.099.

**Q.** And the “Absorbance at 450 nm (MPO secretion)” value (human neutrophils; [4])?
**A.** Its value is 0.100.

**Q.** What about the “Absorbance at 450 nm (MPO secretion)” value (human neutrophils; [5]) of the same compound?
**A.** Its value is 0.100.

**Q.** What about the “Absorbance at 450 nm (MPO secretion)” value (canine neutrophils; [6]) of the same compound?
**A.** The value was 0.32.

**Q.** And the “Absorbance at 450 nm (MPO secretion)” value (canine neutrophils; [4])?
**A.** Its value is 0.30.
